Structures can show the parent of a compound that is named as a salt.
How the values were obtained:
Format in all cases: cell-based
[1] = test system: mouse hematopoietic stem cells; test: Differentiation of hematopoietic stem cells into megakaryocytes/platelets
Excerpt: Activity of TPO secreted during the process of producing megakaryocytes/platelets from preadipocytes was investigated based on the presence or absence of differentiation-inducing property of mouse hematopoietic stem cells into megakaryocytes/platelets when TPO was used. Whether platelets are produced or not was checked based on the shape analyzed by an optical microscope and flow-cytometric expression analysis of platelet specific marker CD41.

[2] = test system: mouse preadipocytes; test: CD41-positive ratio of sorted adipose tissue-derived cell fractions cultured with iron-bound transferrin; settings: CD31 negative, 200 μg/mL, Day 5
Protocol: A subcutaneous adipose tissue was isolated from a mouse. To this, collagenase was added. The mixture was incubated at 37° C. for one hour and centrifuged to obtain a cell layer as a lower layer. Thereafter, these cells were labeled with a fluorescence-labeled anti-CD45 antibody (manufactured by BD Bioscience), a fluorescence-labeled anti-Ter119 antibody (manufactured by BD Bioscience) and 7AAD (manufactured by BD Bioscience), and fluorescence was measured by flow cytometry. Of the cells shown in FIG. 7, upper right panel, cells of CD45 negative, Ter119 negative and 7-AAD negative (cells under the line at the center of the upper right panel of FIG. 7) were separately taken. CD45 is known as a marker of hematopoietic cells (leucocytes, lymphocytes, eosinophils, monocytes, basophils, and neutrophils) excluding erythrocytes and platelets. Ter119 is known as a marker of mature erythrocytes and erythroid progenitor cells. 7-AAD (7-amino-actinomycin D) is known as a marker of dead cells.
Subsequently, CD45 negative, Ter119 negative and 7-AAD negative cells separately taken were labeled with a fluorescence-labeled anti-CD31 antibody (manufactured by BD Bioscience) and fluorescent was measured by flow cytometry. Of the cells shown in the lower left panel of FIG. 7, CD31 negative cells (cells under the line of the center of the lower left panel of FIG. 7) were separately taken. […]
Subsequently, the cells (CD45 negative, Ter119 negative, 7-AAD negative and CD31 negative) previously separately taken were labeled with a fluorescence-labeled anti-c-MPL antibody (manufactured by BD Bioscience) and a fluorescence-labeled anti-CD71 antibody (manufactured by BD Bioscience), and fluorescence was measured by flow cytometry. […]
The cells shown in individual portions of the left panel of FIG. 8 were separately cultured in a medium prepared by adding 200 μg/mL iron-bound transferrin to the basic medium described in Example 3. The ratio (%) of CD41 (specific marker of megakaryocytes/platelets)-positive cells in the cells on Day 5 after initiation of culture was determined. […]

[3] = test system: human preadipocytes; test: Ratio of CD41-positive cells at different iron-bound transferrin concentrations; settings: Day 4
Protocol: Human preadipocytes maintenance-cultured in accordance with the method of Example 1 were prepared and cultured in mediums prepared by adding iron-bound transferrin samples different in concentration to the basic medium described in Example 3. The ratio (%) of CD41 (specific marker of megakaryocytes and platelets)-positive cells in the cells on Day 4 after initiation of the culture was determined.

[4] = test system: human preadipocytes; test: TPO production at different iron-bound transferrin concentrations; settings: for TPO: Day 4
[5] = test system: mouse preadipocytes; test: Identification of megakaryocyte/platelet production inducing substance (CD41 flow cytometry); settings: reagent added alone to basic medium, Day 7
Protocol: In order to identify an important factor(s) for inducing production of megakaryocytes/platelets from preadipocytes, mediums were prepared by separately adding individual reagents contained in a differentiation-inducing medium (MKLI medium) for megakaryocytes/platelets, to a basic medium (IMDM medium containing 2 mM L-glutamine, a 100 U/mL penicillin-streptomycin solution, and nucleotides (ATP, UTP, GTP, and CTP, 20 μM for each)). More specifically, five types of mediums were prepared by adding 0.5% bovine serum albumin, 10 μg/mL insulin, 4 μg/mL LDL cholesterol, 200 μg/mL iron-saturated transferrin (iron-bound transferrin) and 50 μM 2-β-mercaptoethanol, respectively, to the basic mediums (FIG. 5). Mouse preadipocytes maintenance-cultured in accordance with the method of Example 1 were cultured in the above five types of mediums and in the basic medium, i.e., in total 6 types of medium (FIG. 5) for 7 days.
The mouse preadipocytes on Day 7 after culture in each of the mediums were directly labeled with a FITC-labeled anti-CD41 antibody and analyzed by flow cytometry.

[6] = test system: preadipocytes; test: Effect of iron chelator and apo-transferrin on ratio of CD41-positive cells; settings: Day 4
Protocol: To investigate effect of an iron ion on induction of preadipocytes into megakaryocytes/platelets, analysis using the preadipocytes was made. Specifically, a medium (basic medium+iron-bound transferrin+Desferal (deferoxamine mesylate)) was prepared by adding an iron chelator, Desferal (deferoxamine mesylate, manufactured by Novartis Pharma K. K.) to a basic medium containing 200 μg/mL iron-bound transferrin, or a medium (basic medium+apo-transferrin) was prepared by adding a non-iron-bound transferrin, apo-transferrin (manufactured by Athens Research and Technology) to a basic medium alone. Cells were cultured in these mediums and the ratio (%) of CD41 (specific marker of megakaryocytes and platelets)—positive cells in the cells on Day 4 after the culture was determined. The results of Desferal (deferoxamine mesylate) addition are shown in Table 3; whereas the results of apo-transferrin addition are shown in Table 4.

[7] = test system: preadipocytes; test: CD71 knock-down by siRNA: TPO in culture supernatant by ELISA
Protocol: A medium was prepared by removing bovine serum albumin, insulin, LDL cholesterol and 2-β-mercaptoethanol from MKLI medium. The medium is the same as a medium (“basic medium+transferrin”), which is prepared by adding 200 μg/mL iron-bound transferrin to a medium (of MKLI medium) corresponding to a basic medium (a medium prepared by adding, to Iscove's Modified Dulbecco's Medium, IMDM), 2 mM L-glutamine, a 100 U/mL penicillin-streptomycin solution, and nucleotides (ATP, UTP, GTP, and CTP, 20 μM for each) and corresponding to a medium prepared by adding 200 μg/mL iron-bound transferrin to “the particularly preferable basic medium in the present invention” described in the detailed description of the present application. To preadipocytes, a gene of siRNA of transferrin receptor CD71 (siRNA-CD71) (the sequence of a sense strand is represented by SEQ. ID No. 1, whereas the sequence of the antisense strand is represented by SEQ. ID No. 2) or a scrambled oligo (negative control) (the sequence of a sense strand is represented by SEQ. ID No. 3, whereas the sequence of the antisense strand is represented by SEQ. ID No. 4) was introduced. The resultant preadipocytes were cultured in the aforementioned “basic medium+transferrin”. TPO in each of the culture supernatants was measured by ELISA quantitation using the TPO Quantikine ELISA kit (manufactured by R&D Systems). In Table 6, “unmeasurable” means that measurement values are equivalent to the value of the background. As is apparent from Table 6, TPO was secreted from preadipocytes using the scrambled oligo, whereas TPO was not secreted from preadipocytes in which transferrin receptor CD71 was knocked down by siRNA.

[8] = test system: transferrin receptor CD71; test: CD71 knock-down by siRNA: CD71 % in human preadipocytes
Excerpt: (§1) In consideration of the results, whether a transferrin receptor CD71 knock-down preadipocytes have differentiation potency to megakaryocytes and platelets or not was checked. To human preadipocytes, a gene of siRNA of CD71 (siRNA-CD71) (the sequence of a sense strand is represented by SEQ. ID No. 1, whereas the sequence of the antisense strand is represented by SEQ. ID No. 2) or a scrambled oligo (negative control) (the sequence of a sense strand is represented by SEQ. ID No. 3, whereas the sequence of the antisense strand is represented by SEQ. ID No. 4) was introduced. Forty eight hours later, the human preadipocytes were cultured in a medium prepared by adding transferrin alone to the basic medium, for four days.
(§2) Human preadipocytes on Day 4 after culture were directly labeled with a FITC-labeled anti-CD41 antibody and analyzed by flow cytometry. As a result, production of megakaryocytes and platelets was not observed in CD71 knock-down human preadipocytes (Table 1).

[9] = test system: transferrin receptor CD71; test: CD71 knock-down by siRNA: CD71 % (Example 11)
[10] = test system: human preadipocytes; test: CD71 knock-down by siRNA: CD41-positive cells by flow cytometry
Excerpt: as §1, §2

[11] = iron-bound transferrin 25 μg/mL in basic medium
[12] = iron-bound transferrin 50 μg/mL in basic medium
[13] = iron-bound transferrin 100 μg/mL in basic medium
[14] = iron-bound transferrin 200 μg/mL in basic medium
[15] = iron-bound transferrin 400 μg/mL in basic medium
[16] = Day 0 (48 hours after siRNA introduction)
[17] = Day 2, basic medium+transferrin
[18] = Day 4, basic medium+transferrin
[19] = Day 4 of culture in basic medium + transferrin

Molecule: TPO: thrombopoietin purchased from Stem Cell Technologies, 50 ng/mL in MKLI medium
- platelet production ([1]; Day 2 and Day 8 after initiation of culture): slightly produced
- ratio of CD41 positive cells ([1]; Day 8, 1.26% before culture, supernatant TPO 43.1±4.9 pg/mL, purchased TPO 50 ng/mL in MKLI medium): 5.56%

Molecule: Iron-bound transferrin: holo-transferrin formed by binding an apo-transferrin to an iron ion; manufactured by Sigma
- ratio (%) of CD41-positive cells ([2]; c-MPL negative, CD71 negative preadipocytes): 10.8%
- ratio (%) of CD41-positive cells ([2]; c-MPL negative, CD71 positive preadipocytes): 26.9%
- ratio (%) of CD41-positive cells ([2]; c-MPL positive, CD71 positive preadipocytes): 62.3%
- CD41 (%) [3, 11]: 15.5 ± 9.2%
- CD41 (%) [3, 12]: 18 ± 9.9%
- CD41 (%) [3, 13]: 17.5 ± 9.2%
- CD41 (%) [3, 14]: 19 ± 8.5%
- CD41 (%) [3, 15]: 11 ± 7.1%
- TPO [4, 11]: Below
- decrease of concentration of TPO produced compared to the case of 200 μg/mL ([4]; iron-bound transferrin 50 μg/mL): about 25%
- TPO [4, 12]: 7.5 ± 1.1 pg/mL
- TPO [4, 13]: 10.8 ± 3.5 pg/mL
- TPO [4, 14]: 10 ± 2.4 pg/mL
- TPO [4, 15]: Below
- cells expressing CD41 [5]: observed

Molecule: OCCS [2-β-mercaptoethanol]
- cells expressing CD41 [5]: not observed

Molecule: insulin: insulin, 10 μg/mL added to basic medium
- cells expressing CD41 [5]: not observed

Molecule: CC(=O)N(O)CCCCCNC(=O)CCC(=O)N(O)CCCCCNC(=O)CCC(=O)N(O)CCCCCN [Desferal, deferoxamine mesylate]
- CD41 (%) ([6]; Desferal 0.005 mg/mL in basic medium + 200 μg/mL iron-bound transferrin): 36 ± 11.3%
- CD41 (%) ([6]; Desferal 0.05 mg/mL in basic medium + 200 μg/mL iron-bound transferrin): 35.5 ± 10.6%
- CD41 (%) ([6]; Desferal 0.5 mg/mL in basic medium + 200 μg/mL iron-bound transferrin): 14 ± 5.7%
- CD41 (%) ([6]; Desferal 5 mg/mL in basic medium + 200 μg/mL iron-bound transferrin): 10.5 ± 6.4%
- CD41 (%) ([6]; Desferal 50 mg/mL in basic medium + 200 μg/mL iron-bound transferrin): 5 ± 2.8%

Molecule: siRNA-CD71: siRNA of transferrin receptor CD71; sense strand SEQ. ID No. 1, antisense strand SEQ. ID No. 2 (sense GAACUUGAAACUGCGUAAATT; antisense UUUACGCAGUUUCAAGUUCTT; chemistry not given here) [siRNA of transferrin receptor CD71; ID No. 2]
- TPO [7, 16]: Unmeasurable
- TPO [7, 17]: Unmeasurable
- TPO [7, 18]: Unmeasurable
- CD71 % [8, 16]: 5.7 ± 0.2%
- CD71 % [8, 19]: 7.5 ± 0.7%
- CD71 % [9, 16]: 5.7 ± 0.2%
- CD71 % [9, 17]: 13.7 ± 0.6%
- CD71 % [9, 18]: 7.5 ± 0.7%
- CD41 (%) [10, 16]: 0.1> %
- CD41 (%) [10, 19]: 0.1> %

Molecule: Apo-transferrin: non-iron-bound transferrin, manufactured by Athens Research and Technology
- CD41 (%) ([6]; apo-transferrin 200 μg/mL added to basic medium alone): 16.5 ± 4.95%
- CD41 (%) ([6]; apo-transferrin 400 μg/mL added to basic medium alone): 14.5 ± 3.54%
